Test systems include EKVX NSCLC; HCT-116 colon; HT29 colon; NCI-H522 lung; OVCAR-8 ovarian; PC-3 prostate; SR leukemia; SW-620 colon; UACC-62 melanoma; LOX IMVI melanoma.
What all share (assay): NCI anticancer screen, dose series, 48 h

Several values for one entry are separate records, joined by “and”; a condition that tells them apart may be missing. Equal values may be shown once.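 In this assay, cells in 96-well plates receive the compound at five concentrations for 48 hours. Endpoints are linearly interpolated between the surrounding concentrations. GI50 marks 50% less growth. At the TGI there is no net growth.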 Bounds are passed on as bounds.

Turning to `C=C1C(=O)OC2CC1C(OC(C)=O)C/C(C)=C/CC/C(C)=C\CCC2(C)O` (centres undefined), the TGI with EKVX NSCLC is 16 µM and 14 µM; with HCT-116 colon it was 12.2 µM and 7.66 µM; in the experiment on HT29 colon, 6.44 µM and 18 µM; with NCI-H522 lung, 3.16 µM and 3.13 µM; with OVCAR-8 ovarian, 14.6 µM and 12.6 µM; in the experiment with PC-3 prostate, 19.6 µM and > 100 µM. Further, the TGI with SR leukemia is 4.85 µM; with SW-620 colon it was 12.6 µM and 8.91 µM; in the experiment on UACC-62 melanoma it was 26.1 µM and 12.9 µM. For the same molecule, the GI50 in the experiment with HT29 colon is 1.69 µM and 4.87 µM; with PC-3 prostate, 6.08 µM and 19.9 µM; with UACC-62 melanoma, 11.3 µM and 2.89 µM.

For the molecule `CC(Cc1cccc2c1Nc1ccccc1S2)N(C)CCO` (centres undefined), the TGI in the experiment on EKVX NSCLC, in the experiment on HCT-116 colon, in the experiment on HT29 colon, in the experiment on LOX IMVI melanoma, with NCI-H522 lung and in the experiment on OVCAR-8 ovarian was over 100 µM throughout. The TGI in the experiment on PC-3 prostate, in the experiment on SR leukemia, in the experiment on SW-620 colon and in the experiment with UACC-62 melanoma was over 100 µM each time.

As for `Cn1c(=O)c2[nH]c(CCCc3ccc([N+](=O)[O-])cc3)nc2n(C)c1=O`, the TGI in the experiment on EKVX NSCLC, with HCT-116 colon, in the experiment on HT29 colon, in the experiment with LOX IMVI melanoma, with NCI-H522 lung and with OVCAR-8 ovarian was over 100 µM throughout. Further, the TGI in the experiment with PC-3 prostate, in the experiment with SR leukemia and in the experiment on UACC-62 melanoma was over 100 µM in each case.

For `NCCCNc1nc2ccc(Cl)cc2c2c(=O)c3cc(F)ccc3sc12`, the GI50 in the experiment on EKVX NSCLC is 6 µM; in the experiment with HCT-116 colon, 1.72 µM; in the experiment with HT29 colon, 2.12 µM; with LOX IMVI melanoma, 1.57 µM; with NCI-H522 lung, 2.26 µM; with OVCAR-8 ovarian, 3.24 µM. Further, the GI50 in the experiment on PC-3 prostate was 3.43 µM; with SR leukemia, 2.1 µM; with SW-620 colon, 1.74 µM; in the experiment with UACC-62 melanoma it was 2.83 µM. Moreover, the TGI in the experiment on EKVX NSCLC amounted to 21.2 µM; in the experiment on HCT-116 colon, 3.12 µM; with HT29 colon, 4.94 µM; in the experiment on LOX IMVI melanoma it was 2.95 µM; with NCI-H522 lung it was 5.67 µM; in the experiment on OVCAR-8 ovarian, 15.1 µM. For the same molecule, the TGI with PC-3 prostate stood at 14.2 µM; with SR leukemia, 5.37 µM; in the experiment on SW-620 colon, 3.32 µM; in the experiment with UACC-62 melanoma, 8.41 µM.

In the case of `COC(=O)[C@@H](C)C[C@H](Cc1ccccc1)NC(=O)c1csc([C@@H](C[C@H](C(C)C)N(C)C(=O)C2(NC(=O)[C@H]3CCCCN3C)CCC2)OC(C)=O)n1`, the TGI in the experiment on EKVX NSCLC was over 25 µM; in the experiment on HCT-116 colon, 2.52 µM; in the experiment with HT29 colon it was over 25 µM; with LOX IMVI melanoma, over 25 µM; in the experiment on OVCAR-8 ovarian, over 25 µM; in the experiment with PC-3 prostate it was over 25 µM. The TGI in the experiment with SR leukemia, with SW-620 colon and in the experiment on UACC-62 melanoma was over 25 µM throughout. The GI50 is 0.00447 µM and 0.0025 µM with HCT-116 colon; 0.00269 µM and 0.0025 µM with HT29 colon; 0.00771 µM and 0.0025 µM in the experiment on LOX IMVI melanoma; 0.00165 µM in the experiment on NCI-H522 lung; 0.0168 µM and 0.00626 µM in the experiment with OVCAR-8 ovarian; 0.00406 µM and 0.0025 µM in the experiment on PC-3 prostate. The GI50 is 0.000495 µM and 0.0025 µM in the experiment with SR leukemia; 0.00513 µM and 0.0025 µM with SW-620 colon; 0.00244 µM and 0.0025 µM with UACC-62 melanoma.

In the case of `C=C(CN1CCN(c2ccccc2C(F)(F)F)CC1)c1ccc(C(=O)Nc2ccccc2N)cc1`, the GI50 with EKVX NSCLC was 6.7 µM; with HCT-116 colon, 3.09 µM; with HT29 colon it was 4.09 µM; with LOX IMVI melanoma, 5.86 µM; with NCI-H522 lung, 1.91 µM; in the experiment with OVCAR-8 ovarian, 3.84 µM. Also, the GI50 was 1.91 µM in the experiment with PC-3 prostate, 2.36 µM in the experiment on SR leukemia, 3.4 µM in the experiment with SW-620 colon and 9.16 µM in the experiment on UACC-62 melanoma. In addition, the TGI is over 100 µM with EKVX NSCLC; 16.3 µM in the experiment with HCT-116 colon; 20.2 µM with HT29 colon; 42.2 µM with LOX IMVI melanoma; over 28.1 µM in the experiment on NCI-H522 lung; over 100 µM in the experiment with OVCAR-8 ovarian. In addition, the TGI in the experiment on PC-3 prostate was 12 µM; with SR leukemia, 5.95 µM; with SW-620 colon, over 65.9 µM; in the experiment on UACC-62 melanoma, over 93.7 µM.

Take `O=C1c2cccnc2C(=O)c2c1c(C(=O)OCCc1ccccn1)c1ccccn21`: the GI50 is 0.305 µM in the experiment on EKVX NSCLC; 0.019 µM in the experiment with HCT-116 colon; 1.54 µM in the experiment with HT29 colon; 0.0206 µM with LOX IMVI melanoma; 0.12 µM with NCI-H522 lung; 0.0589 µM in the experiment with OVCAR-8 ovarian. The GI50 in the experiment on PC-3 prostate is 0.0563 µM; in the experiment on SR leukemia it was under 0.01 µM; in the experiment on SW-620 colon it was under 0.01 µM; in the experiment with UACC-62 melanoma it was 0.0202 µM. Moreover, the TGI with EKVX NSCLC amounted to 3.81 µM; in the experiment on HCT-116 colon, 0.318 µM; with HT29 colon, 3.35 µM; in the experiment on LOX IMVI melanoma, 1.12 µM; with NCI-H522 lung it was 0.714 µM; in the experiment on OVCAR-8 ovarian, 2.12 µM. For the same molecule, the TGI in the experiment on PC-3 prostate is 6.57 µM; in the experiment on SR leukemia, over 100 µM; with SW-620 colon it was over 44.8 µM; in the experiment on UACC-62 melanoma, 0.219 µM.

As to `COc1ccc(/C=C/C(=O)c2ccc(Nc3nc(Nc4ccc(F)cc4)nc(Nc4ccc(Cl)cc4)n3)cc2)cc1`, the GI50 with EKVX NSCLC is over 100 µM; in the experiment with HCT-116 colon, 39.9 µM; in the experiment on HT29 colon, 29.6 µM; with LOX IMVI melanoma it was over 100 µM; in the experiment on NCI-H522 lung it was 36.7 µM; in the experiment with OVCAR-8 ovarian it was over 100 µM. The GI50 with PC-3 prostate is 30.6 µM; in the experiment on SR leukemia, 4.68 µM; in the experiment on SW-620 colon it was over 100 µM; with UACC-62 melanoma, over 100 µM. Besides, the TGI in the experiment with EKVX NSCLC, with HCT-116 colon, with HT29 colon, in the experiment on LOX IMVI melanoma, with NCI-H522 lung and with OVCAR-8 ovarian was over 100 µM each time. Moreover, the TGI in the experiment with PC-3 prostate was over 100 µM; in the experiment with SR leukemia, 38.2 µM; in the experiment with SW-620 colon it was over 100 µM; with UACC-62 melanoma it was over 100 µM.
